Laboratory results reported in the CheMixHub viscosity set.

Test: xn = mol fraction of the nth substance listed

O=C1CCCC1 + CCOC(=O)OCC
viscosity [mPa·s], 101 kPa
Conditions | x2 = 0.0876 | x2 = 0.1356 | x2 = 0.2458 | x2 = 0.3359 | x2 = 0.4228 | x2 = 0.5415 | x2 = 0.6475 | x2 = 0.7513 | x2 = 0.8664 | x2 = 0.9352
303.15 K | 0.958 | 0.937 | 0.891 | 0.859 | 0.83 | 0.797 | 0.77 | 0.747 | 0.725 | 0.713
308.15 K | 0.893 | 0.873 | 0.833 | 0.803 | 0.776 | 0.745 | 0.722 | 0.701 | 0.681 | 0.668
313.15 K | 0.835 | 0.819 | 0.783 | 0.757 | 0.733 | 0.705 | 0.683 | 0.664 | 0.644 | 0.632

CC(O)CO (stereo not given) + CCOC(C)=O
viscosity [mPa·s], 101.3 kPa
Conditions | x2 = 0.0929 | x2 = 0.1906 | x2 = 0.2984 | x2 = 0.4082 | x2 = 0.5085 | x2 = 0.6062 | x2 = 0.7032 | x2 = 0.7968 | x2 = 0.8998
298.15 K | 20.11 | 10.09 | 5.084 | 2.919 | 1.869 | 1.238 | 0.8932 | 0.6933 | 0.5327
303.15 K | 15.92 | 8.28 | 4.306 | 2.516 | 1.663 | 1.115 | 0.8175 | 0.6419 | 0.5008
308.15 K | 12.64 | 6.743 | 3.661 | 2.193 | 1.47 | 1.011 | 0.7525 | 0.5957 | 0.4714
313.15 K | 10.17 | 5.587 | 3.146 | 1.924 | 1.313 | 0.9178 | 0.6971 | 0.5565 | 0.4442
318.15 K | 8.35 | 4.705 | 2.729 | 1.705 | 1.177 | 0.8394 | 0.6418 | 0.5191 | 0.4197
323.15 K | 6.893 | 4.021 | 2.377 | 1.514 | 1.072 | 0.7691 | 0.5964 | 0.4882 | 0.3962

CCCCCCCC[P+](CC)(CC)CC.N#Cc1ccc[n-]1 + OCC(O)CO
viscosity [mPa·s], 100 kPa
Conditions | 293.15 K | 298.15 K | 303.15 K | 313.15 K
x1 = 0.031 | 1533 | 966 | 621 | 248
x1 = 0.071 | 1550 | 996 | 617 | 248
x1 = 0.109 | 1457 | 916 | 581 | 228
x1 = 0.16 | 1330 | 825 | 540 | 240
x1 = 0.222 | 1133 | 699 | 428 | 198
x1 = 0.297 | 903 | 584 | 405 | 187
x1 = 0.393 | 672 | 437 | 289 | 150
x1 = 0.457 | 608 | 408 | 274 | 138
x1 = 0.532 | 545 | 368 | 251 | 134
x1 = 0.615 | 519 | 357 | 245 | 129
x1 = 0.742 | 434 | 291 | 197 | 105
x1 = 0.833 | 372 | 252 | 167 | 89

ClC=C(Cl)Cl + CC(C)CCO
303.15 K, 101.3 kPa
Conditions | viscosity [mPa·s]
x1 = 0.0921 | 2.553
x1 = 0.2031 | 2.01
x1 = 0.2728 | 1.705
x1 = 0.4124 | 1.237
x1 = 0.5054 | 1.027
x1 = 0.6208 | 0.85
x1 = 0.7016 | 0.758
x1 = 0.814 | 0.666
x1 = 0.9047 | 0.597

C1COCCN1 + NCCO
viscosity [mPa·s], 101 kPa
Conditions | 293.15 K | 303.15 K | 313.15 K | 323.15 K
x1 = 0.06557 | 20.7 | – | – | –
x1 = 0.06901 | – | – | 8.726 | –
x1 = 0.07 | 21.21 | 13.58 | 8.71 | 6.21
x1 = 0.2 | 14.61 | 9.65 | 6.44 | 4.68
x1 = 0.2273 | – | – | 6.709 | –
x1 = 0.2293 | 14.65 | – | – | –
x1 = 0.4 | 9.19 | 6.31 | 4.57 | 3.36
x1 = 0.4108 | – | – | 4.506 | –
x1 = 0.4137 | 9.258 | – | – | –
x1 = 0.6 | 5.53 | 3.97 | 2.94 | 2.24
x1 = 0.616 | 5.651 | – | – | –
x1 = 0.6175 | – | – | 3.337 | –
x1 = 0.8608 | 3.673 | – | – | –
x1 = 0.8622 | – | – | 2.454 | –
x1 = 0.9 | 3.22 | 2.54 | 1.98 | 1.61

CCCCCCCC[P+](CC)(CC)CC.N#Cc1ccc[n-]1 + OCCN(CCO)CCO
viscosity [mPa·s], 100 kPa
Conditions | 293.15 K | 298.15 K | 303.15 K | 313.15 K
x1 = 0.014 | 950 | 622 | 405 | 185
x1 = 0.025 | 986 | 640 | 415 | 190
x1 = 0.039 | 1004 | 657 | 426 | 193
x1 = 0.049 | 1011 | 660 | 426 | 193
x1 = 0.104 | 939 | 596 | 380 | 175
x1 = 0.167 | 824 | 539 | 351 | 163
x1 = 0.223 | 812 | 533 | 352 | 166
x1 = 0.315 | 722 | 474 | 314 | 152
x1 = 0.508 | 619 | 422 | 284 | 140
x1 = 0.647 | 600 | 406 | 273 | 136
x1 = 0.809 | 438 | 301 | 202 | 101

O=C(CO)[C@@H](O)[C@H](O)[C@H](O)CO + C[N+](C)(C)CCO.[Cl-]
100 kPa, x2 = 0.6
Conditions | viscosity [mPa·s]
313.2 K | 1645
318.2 K | 1057

O=C1CCCC1 + CCCO
303.15 K, 101 kPa
Conditions | viscosity [mPa·s]
x1 = 0.1001 | 1.333
x1 = 0.2566 | 1.091
x1 = 0.4203 | 0.974
x1 = 0.5821 | 0.922
x1 = 0.7382 | 0.915
x1 = 0.8967 | 0.935

O=C1CCCC1 + CCCCCO
303.15 K, 101 kPa
Conditions | viscosity [mPa·s]
x1 = 0.0989 | 2.258
x1 = 0.2598 | 1.682
x1 = 0.4202 | 1.353
x1 = 0.5803 | 1.179
x1 = 0.7374 | 1.057
x1 = 0.9009 | 0.98

CC(O)CO (stereo not given) + CCCCCCCO
Conditions | viscosity [mPa·s]
303.15 K, 101 kPa, x2 = 0.6097 | 7.655
